The results in this text go back to the SangsterLogP compilation.

For orientation: logD means lipophilicity at a set pH, counting ionised and neutral species.

A short description of the data set: method code SF-GLC, from DOI: 10.1016/s0022-3565(25)29827-5, PMID: 4823294. As to conditions: pH 7.4.
`CCCOC(N)=O`: the logD is 0.36.
The same measure for `CCCCOC(N)=O`: 0.85; for `CCCCCCCOC(N)=O`: 2.36.
The value for `CC(C)(C)OC(N)=O` was 0.48.
`CCC(C)(C)COC(N)=O`: the pH-dependent lipophilicity (logD) is 1.45.
On to `NC(=O)OCc1ccccc1`, for which the logD turned out to be 1.23.
The value for `CCCCCOC(N)=O` was 1.35; that for `CC(C)(C)COC(N)=O` was 0.94.
`CCCCCCCCOC(N)=O`: the logD was found to be 2.84.
The value for `CCCCCCOC(N)=O` was 1.85.
